Patent US20170363618A1, “AGE-MODIFIED CELLS AND METHODS FOR MAKING AGE-MODIFIED CELLS” (MEMORIAL SLOAN-KETTERING CANCER CENTER, priority 2015, published 2017)
Entries after “also recorded” stand apart in the source; their conditions may differ. Where two headings read alike, the source gives them in different places.

Assays:
[1] = tested on: young (348) and old (204) fibroblasts; assay: Immunofluorescence detection of aging marker expression in fibroblasts after three-day compound treatment; format: cell-based, human; conditions: for shape of youthful marker expression over the three doses (C1-C3): in some cases, highest dose gave lower expression than middle or lower dose
Experimental: Cell samples were all supplied by Coriell Cell Repositories. The cell line from a young individual (<20 years) was GM03348 (“348”). The cell line from an old individual (>65 years) was GM04204 (“204”).
Cells were cultured in human fibroblast medium made from 95% Gibco's Minimum Essential Medium, 4.5% fetal bovine serum, and 0.5% Penicillin/Streptomycin. Cells were plated on 15 cm plates and passaged every 2-3 days as necessary, and fed every other day. For experimentation, cells were plated in 96 well plates or 6 well plates. Before fixation, cells were treated with a preextraction buffer containing 20 mM Hepes pH 7.9, 0.5% Triton X-100, 50 mM NaCl, and 300 mM sucrose for 7 minutes at 4° C. to reduce the high levels of background seen in initial stainings. Cells were then fixed with 4% paraformaldehyde for 15 minutes at room temperature.
After fixing, cells were incubated in Permeablization Buffer containing 0.3% Triton X-100 and 1% BSA in PBS for 35 minutes at room temperature. Cells were then incubated with primary antibodies to markers (1:1000 in PBS) at 4° C. overnight. Following incubation, cells were washed 3× with PBS, then incubated with secondary antibodies (1:500 in PBS) for 30 minutes at room temperature, protected from light. Following this incubation, cells were washed 1× with PBS, then incubated with DAPI 1:1000 in PBS for 7 minutes at room temperature, protected from light, then washed 2× with PBS. Stainings were imaged using either using the Hamamatsu Olympus IX81 microscope, or the PerkinElmer Operetta High Content Imaging System. The expression level of each marker was determined relative to the untreated control on the same treatment plate (FIGS. 11, 13, 15 and 16), or to the average of the untreated controls across all treatment plates for the same marker (FIGS. 12 and 14).
Imaging of immunofluorescence was done using the PerkinElmer Operetta High Content Imaging System. Each well had several (>15) random spots in each plate imaged, and staining intensity quantification was done using the Operetta Harmony software. Analysis is based on mean intensity levels of each staining within a single well compared to mean intensity levels in other wells.
(§1) Cells were then treated with each of the six compounds for three days. Each compound had both a young and old untreated control, as well as the three pre-determined concentrations for both young and old cells. In addition, a six-well plate was set up for Decitabine, Zebularine, Chaetocin and SW155246, with an additional 3 cm plate for use as untreated controls for quantification of global levels of DNA methylation. After treatment, cells were stained with immunofluorescence for HP1α, H1, γH2Ax, Lamin B1, H3K9me3 and […].

[2] = tested on: young (348) and old (204) fibroblasts; assay: 10-day culture with compounds, cell survival measured by cell number counts; format: cell-based
Experimental: Cell numbers are calculated as a mean of 8 wells.
Control cultures of young cells were still healthy after 10 days, and the compounds all had effects on viability (FIG. 15).

[3] = tested on: global DNA levels of 5-mC methylation; assay: Global 5-mC DNA methylation quantification (colorimetric Methylflash kit) in treated fibroblasts; format: cell-based, human; conditions: 3 days of treatment, young and old fibroblasts, three concentrations
Experimental: Genomic DNA was extracted from treated cell samples using the Quick-gDNA MicroPrep kit (Zymo). Global levels of DNA methylation were measured using the colorimetric Methylflash Methylated DNA quantification kit (Epigentek) according to manufacturer instructions, and read using the PerkinElmer ENSPIRE plate reader. gDNA sample size was 50 ng. Analysis was performed according to manufacturer instructions.
as §1

motor neurons (MNs) = conditions: ALS motor neuron screen, 72 hr with compound; cited from earlier work
[4] = 3-day treatment, primary fibroblasts from young and old individuals, immunofluorescence vs untreated control
[5] = 3-day treatment, young and old fibroblasts

## Oc1ccc(C=Cc2cc(O)cc(O)c2)cc1 [Resveratrol]
[1]; 3-day culture
  effect on markers in young cells compared to old cells: greater in young cells compared to old cells; also recorded: more of an effect on young cells than on old cells
[1]; 3-day culture, young (348) and old (204) fibroblasts, normalized to untreated, FIG. 11
  levels of all markers (H1, HP1α, H3K9me3, H3K27me3, LaminB1, yH2Ax): increased
[1]; 3-day culture, young and old fibroblasts
  levels of the five markers of a younger state (H1, HP1α, H3K9me3, H3K27me3, LaminB1): all increased
[1]; [4]
  levels of HP1α (heterochromatin marker, marker of young cellular age): increasing
  levels of histone protein H1 (marker of young cellular age): increasing
[2]
  toxicity / effect on viability after prolonged culture (cell number): Toxicity was also seen

## O=[N+]([O-])c1cc(S(=O)(=O)Nc2ccc(O)c3ccccc23)ccc1Cl [SW155246, 4-Chloro-N-(4-hydroxy-1-naphthalenyl)-3-nitro-benzenesulfonamide]
[1]; 3-day treatment
  shape of youthful marker expression over the three doses (C1-C3): inverted U shaped curve
[1]; [4]
  levels of HP1α (heterochromatin marker, marker of young cellular age): decreasing
  levels of histone protein H1 (marker of young cellular age): decreasing
  levels of γH2AX (DNA damage marker, marker of old cellular age): increasing
[1]; [5]
  expression of the six markers tested: modulated
[3]
  global levels of 5-mC DNA methylation: increased with both the highest and lowest concentrations, but decreased slightly with the middle concentration; also recorded: did not consistently go down
[2]
  toxicity / effect on viability after prolonged culture (cell number): Much less toxicity

## CN1C(=O)[C@@]23C[C@]4([C@]56C[C@@]78SS[C@@](CO)(C(=O)N7[C@H]5Nc5ccccc56)N(C)C8=O)c5ccccc5N[C@@H]4N2C(=O)[C@]1(CO)SS3 [Chaetocin, (3S,3'S,5aR,5aR,10bR,10′bR,11aS,11′aS)-2,2′,3,3′,5a,5′a,6,6′-octahydro-3,3′-bis(hydroxymethyl)-2,2′-dimethyl-[10b,10′b(11H,11′H)-bi3,11a-epidithio-11aH-pyrazino[1′,2′:1,5]pyrrolo[2,3-b]indole]-1,1′,4,4′-tetrone]
[2]; 10-day culture, young cells (control cultures still healthy)
  toxicity / effect on viability after prolonged culture (cell number): highest toxicity

## O=C1Cc2c([nH]c3ccc(Br)cc23)-c2ccccc2N1 [kenpaullone]
Motor neurons (MNs)
  survival of motor neurons after trophic factor withdrawal: impressive ability to prolong the healthy survival of MNs

## CO[C@H]1C[C@@H]2CC[C@@H](C)[C@@](O)(O2)C(=O)C(=O)N2CCCC[C@H]2C(=O)O[C@H]([C@H](C)C[C@@H]2CC[C@@H](O)[C@H](OC)C2)CC(=O)[C@H](C)/C=C(\C)[C@@H](O)[C@@H](OC)C(=O)[C@H](C)C[C@H](C)/C=C/C=C/C=C/1C [Rapamycin]
[2]
  toxicity / effect on viability after prolonged culture (cell number): Toxicity was also seen

## O=c1ncccn1[C@@H]1O[C@H](CO)[C@@H](O)[C@H]1O [Zebularine, 1-(β-D-Ribofuranosyl)-2(1H)-pyrimidinone]
[1]; 3-day treatment
  shape of youthful marker expression over the three doses (C1-C3): inverted U shaped curve
[1]; [5]
  expression of the six markers tested: modulated
[3]
  global levels of 5-mC DNA methylation: decrease
[2]
  toxicity / effect on viability after prolonged culture (cell number): Much less toxicity

## Nc1ncn([C@H]2C[C@H](O)[C@@H](CO)O2)c(=O)n1 [Decitabine, 5-aza-2-deoxycytidine]
[2]
  toxicity / effect on viability after prolonged culture (cell number): Much less toxicity
